{
  "source": "patent US20220098237A1",
  "about": "“COMPOUND, SYNTHESIS INTERMEDIATE, USE, PHARMACEUTICAL COMPOSITION AND NEUROMODULATORY THERAPEUTIC METHOD” (Remer Consultores Assessoria Empresarial Ltda, priority 2017, published 2022)",
  "key": {"CB1 receptor": {"test_system": "CB1 receptor", "assay": "Screening with anti-CB1 antibodies sensitive to activation/conformational changes, ELISA on Striatum membranes", "type": "binding", "conditions": "ligands 1 μM; Assay 1-5", "procedure": "Antibodies sensitive to CB1 receptor activation were generated and characterized by their specificities. For screening compounds, Striatum membranes (5 μg per well) were plated on NUNC-Immuno 96-well plates (Nalge-Nunc) and dried at room temperature. Membranes were washed with PBS (phosphate buffered saline) and incubated with or without different ligands (1 μM) and the extent of receptor recognition by the antibodies was measured by ELISA. The results of the tests are shown in Table 5, which indicates the % binding to the CB1 receptor in relation to control: […]"}, "pain threshold": {"test_system": "pain threshold", "assay": "Pain threshold model, pressure apparatus on right paw", "type": "in vivo, rats", "conditions": "for pain threshold, force: oral, 0.5 to 0.25 mg/kg, individual animals", "procedure": "The compounds of the present invention have also been tested as analgesics or neuropathic pain modulators. To that end, the compounds PVNFKF, PVNFK, VNFKF, SEQ ID No. 1 were tested in the pain threshold model. The pain threshold was measured using a pressure apparatus (Ugo Basile, Italy), essentially as described (Randall and Selitto, 1957). Briefly, a force of increasing magnitude (16 g/s) was applied to the back of the right paw of rats. When animals react by kicking, the force in grams required to induce this response is the threshold of pain. Antinoniceptive activity was expressed as the increase in pain threshold compared to control animals.\nThe compounds of the invention were administered orally to the animals at doses of 0.5 to 0.25 mg/kg and saline was used as a control."}, "pilocarpine model": {"test_system": "pilocarpine model", "assay": "Pilocarpine model, oral pre-treatment (salivation, first signal, seizure, death/survival)", "type": "in vivo, Mus musculus", "design": "time of occurrence of the first seizure: unit not given here", "procedure": "In some examples, the neuromodulatory/neuroprotective/anticonvulsive effects of the composition of the invention have been evaluated in vivo by oral administration to animals. The pharmaceutical composition of the invention was administered to mammals (Mus musculus or mouse) with an oral dose of treatment with different embodiments of the compound of the invention, compared to other compounds or to saline control. In these experiments, the test compounds were administered orally 10 minutes prior to (intraperitoneal) administration of pilocarpine. Pilocarpine hydrochloride (320 mg/kg, Merck), dissolved in 0.9% sterile saline, was given intraperitoneally for induction of SE (status epileticus) (Turski et al., 1983). In the Turski model, the neurotoxic effects begin about 15-25 minutes after the injection of Pilo, with the occurrence of motor and limbic seizures, the animals evolving to a state of continuous (clonic) seizures that characterize SE Sanabria and Cavalheiro, 2000).\nIn this embodiment, the anticonvulsive effect of the composition of the invention prepared according to Example 2 was evaluated by prior administration of the inventive composition and subsequent administration of pilocarpine to animals. FIG. 4 presents the results of the pilocarpine model, indicating the time for the first salivation with the administration of control, cannabidiol (30 mg/kg), the compound of the invention R1-N-AA1-K-AA2-R2, in which embodiment is the tetrapeptide of SEQ ID No. 1 (500 μg/kg).\nIn this embodiment, the neuromodulatory effect of the composition of the invention prepared according to Example 2 was evaluated by prior administration of the inventive composition and subsequent administration of pilocarpine to animals. Other test compounds were also evaluated as described below. Administration of pilocarpine leads to severe brain injury, neurotoxicity and usually culminates in the death of the animals. This substance was used in the experiments described below but its harmful neuronal/encephalic effects were inhibited by the prior administration of the composition of the present invention: the vast majority of the animals subjected to these experiments had no symptoms related to brain lesions and survived without apparent damage, in contrast to groups of animals treated with other known substances.\nThe composition of the invention was prepared according to Example 2 with due concentration correction, for comparison of the effects of SEQ ID No. 1, SEQ ID No. 7 and NFK, such compounds having been previously administered to the animal groups.\nIn this embodiment, the anticonvulsant effect of different embodiments of the compound of the invention with the structure represented by SEQ ID No. 1, SEQ ID No. 7, NFK, FKF, FKL, as well as the NF, FK, KF and KL dipeptides were evaluated in the pilocarpine model."}, "human CB2 receptor": {"molecular_target": "T1, human CB2 receptor (Homo sapiens, UniProt P34972)", "T1 construct": "expressed in transfected cells; host or cells: CHO cells", "T1 sequence (P34972 whole entry)": "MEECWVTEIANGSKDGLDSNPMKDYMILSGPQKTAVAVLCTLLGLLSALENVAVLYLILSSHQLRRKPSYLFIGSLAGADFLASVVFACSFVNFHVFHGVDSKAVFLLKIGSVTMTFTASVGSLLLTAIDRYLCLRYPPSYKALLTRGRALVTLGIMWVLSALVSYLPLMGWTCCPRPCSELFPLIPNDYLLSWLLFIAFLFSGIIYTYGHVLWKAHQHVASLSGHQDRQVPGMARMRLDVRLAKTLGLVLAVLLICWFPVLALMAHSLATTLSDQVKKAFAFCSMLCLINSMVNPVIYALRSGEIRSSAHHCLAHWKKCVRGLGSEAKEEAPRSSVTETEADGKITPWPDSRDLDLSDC", "assay": "In vitro radioligand binding, [3H] WIN55212-2, recombinant CHO cells", "design": "% of inhibition of binding of specific control, 1st/2nd measurement: unit of the concentration uncertain", "conditions": "for % of inhibition of binding of specific control, 1st/2nd measurement: radioligand agonist WIN 55212-2", "procedure": "In vitro binding assays were performed using recombinant CHO cells expressing human CB2 receptor and [3H]"}, "[1]": {"assay": "Stability tests under extreme conditions (freezing 24 hours; heating at 100° C. for 10 minutes), HPLC", "type": "physicochemical", "description": "In the vertical axis the area of the HPLC peak is shown. […] Statistical significance data are also shown, the asterisks indicating: (*) P<0.05 vs Control (***) P<0.005 vs Control; (****) P<0.0001 vs Control."}, "human CB1 receptor": {"molecular_target": "T2, human CB1 receptor (Homo sapiens, UniProt P21554)", "T2 construct": "expressed in transfected cells; host or cells: CHO cells", "T2 sequence (P21554 whole entry)": "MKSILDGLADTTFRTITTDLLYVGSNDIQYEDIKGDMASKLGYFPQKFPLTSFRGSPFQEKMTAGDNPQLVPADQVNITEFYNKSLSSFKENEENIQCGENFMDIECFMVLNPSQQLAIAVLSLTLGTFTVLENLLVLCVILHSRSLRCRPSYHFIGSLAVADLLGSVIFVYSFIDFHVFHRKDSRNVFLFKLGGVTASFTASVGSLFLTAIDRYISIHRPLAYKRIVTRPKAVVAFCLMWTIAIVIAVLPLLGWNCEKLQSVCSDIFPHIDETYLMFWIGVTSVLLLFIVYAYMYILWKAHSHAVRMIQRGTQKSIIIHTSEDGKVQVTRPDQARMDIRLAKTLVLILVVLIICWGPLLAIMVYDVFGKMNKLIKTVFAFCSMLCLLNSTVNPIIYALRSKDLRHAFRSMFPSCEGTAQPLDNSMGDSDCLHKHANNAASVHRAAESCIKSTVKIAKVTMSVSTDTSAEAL", "assay": "In vitro radioligand binding, [3H] CP 55940, recombinant CHO cells", "conditions": "radioligand agonist CP55940, read-out: % of inhibition of binding of specific control, Mean value", "procedure": "In vitro binding assays were performed using recombinant CHO cells expressing the human CB1 receptor and the [3H]\nResults are expressed as the percentage of binding of the specific control according to formula: […]\nAnd the percentual inhibition of binding of specific control obtained in the presence of the compound of the invention is:\nIC50 values (concentration that causes half of maximal inhibition of specific control binding) and Hill (nH) coefficients were determined by nonlinear regression of the competition curves generated with the mean values of the replicates using the Hill equation:\nWhere Y=specific binding, A=asymptotic left of curve, D=asymptotic right of curve, C=compound concentration, C50=IC50 and nH=curve coefficient/slope factor. This analysis was performed using the Hill software validated by comparison with data generated by Sigmaplot 4.0 software. Inhibition constants (Ki) were calculated using the equation of Chen Prusoff:\nWhere L=concentration of the radioligand in the assay; KD=affinity of the radioligand for the receptor. A graph is used to determine the KD."}, "[2]": {"test_system": "experimental autoimmune encephalomyelitis (EAE)", "assay": "EAE model of Multiple Sclerosis, MOG induction, Endopeptidase 24.15 knockout mice", "type": "in vivo", "conditions": "24.15 knock out mice, FIG. 25", "description": "In this embodiment, transgenic mice knockout of the Endopeptidase 24.15 gene were challenged with MOG (Myelin Oligodendrocyte Glycoprotein), with administration of the compound of the invention SEQ ID No. 1 or saline as a control. After the introduction of the disease, a daily evaluation of the symptoms was made, according to Table 11 below."}, "[3]": {"conditions": "FIG. 6, 500 μg/kg before pilocarpine"}},
  "note": "Several values for one entry are separate records, joined by “and”; a condition that tells them apart may be missing. Identical values can stand only once. Entries after “also recorded” stand apart in the source; their conditions may differ. Peptide text beside a SMILES is read from it.",
  "data": [
    {"smiles": "NCCCCC(NC(=O)C(Cc1ccccc1)NC(=O)C(N)CC(N)=O)C(=O)NC(Cc1ccccc1)C(=O)O", "note": "(stereo not shown) [SEQ ID No. 1] (H-NFKF-OH; configuration not given here)", "values": [
      {"measurement": "% binding to the CB1 receptor in relation to control", "setting": "CB1 receptor", "value": "90.27% and 84.41% and 90.19% and 77.88% and 65.39%"},
      {"measurement": "pain threshold, force", "setting": "pain threshold; After 3 h", "value": "80 grams (2×) and 70 grams (3×) and 75 grams"},
      {"measurement": "pain threshold, force", "setting": "pain threshold; Immediate", "value": "70 grams and 75 grams (3×) and 80 grams and 60 grams"},
      {"measurement": "greater pain threshold compared to PVNFKF", "setting": "pain threshold; after 3 h", "value": 50.1, "unit": "%"},
      {"measurement": "time for first salivation vs control (significance)", "setting": "pilocarpine model; FIG. 4, cannabidiol 30 mg/kg, SEQ ID No. 1 500 μg/kg", "value": "does not present statistical significance"},
      {"measurement": "number of animals that died", "setting": "pilocarpine model; [3]", "value": "two"},
      {"measurement": "remaining animals alive for more than a week", "setting": "pilocarpine model; [3]", "value": 3, "unit": "animals"},
      {"measurement": "prostration and nasal bleeding", "setting": "pilocarpine model; SEQ ID No. 1 500 μg/kg, cannabidiol 30 mg/kg", "value": "no occurrence of prostration or nasal bleeding; also recorded: non-occurrence of prostration or nasal bleeding"},
      {"measurement": "time of occurrence of the first salivation", "setting": "pilocarpine model; Table 1, oral, 10 minutes prior to pilocarpine 320 mg/kg i.p., individual animals", "value": "3.2 min and 1.83 min and 1.97 min and 2.73 min and 1.58 min"},
      {"measurement": "time of occurrence of the first signal", "setting": "pilocarpine model; Table 2, oral, 10 minutes prior to pilocarpine 320 mg/kg i.p., individual animals", "value": "12.33 min and 8.43 min and 10.23 min and 13.53 min and 9.9 min"},
      {"measurement": "time of occurrence of the first seizure", "setting": "pilocarpine model; Table 3, oral, 10 minutes prior to pilocarpine 320 mg/kg i.p., individual animals", "value": "17.88 and 15.17 and 19.95 and 15.18 and 16"},
      {"measurement": "time of death occurrence", "setting": "pilocarpine model; Table 4, oral, 10 minutes prior to pilocarpine 320 mg/kg i.p., individual animals", "value": "18.92 min and 20 min and 15.18 min and 10.87 min"},
      {"measurement": "% of inhibition of binding of specific control, 1st/2nd measurement", "setting": "human CB2 receptor; 1 (unit uncertain)", "value": "3.5% and 0.3%"},
      {"measurement": "% of inhibition of binding of specific control, 1st/2nd measurement", "setting": "human CB2 receptor; 10 (unit uncertain)", "value": 13.1, "unit": "%"},
      {"measurement": "modulation in binding of the radioligand (in words)", "setting": "human CB2 receptor; conditions tested", "value": "did not provide significant modulation"},
      {"measurement": "area of the HPLC peak, control", "setting": "[1]; control sample, n=2", "value": 120},
      {"measurement": "area of the HPLC peak after freezing", "setting": "[1]; freezing for 24 h", "value": 100},
      {"measurement": "part lost or degraded by freezing", "setting": "[1]; freezing for 24 h", "value": 16.7, "unit": "%"},
      {"measurement": "degradation upon heating (in words)", "setting": "[1]; heating at 100° C. for 10 minutes", "value": "did not suffer statistically significant degradation"},
      {"measurement": "inhibition at 1 µM", "setting": "human CB1 receptor; 1 µM", "value": -74.6, "unit": "%"},
      {"measurement": "inhibition at 10 µM", "setting": "human CB1 receptor; 10 µM", "value": -9.9, "unit": "%"},
      {"measurement": "clinical symptoms (Clinical Score)", "setting": "[2]", "value": "impressive reduction of clinical symptoms"}
    ]}
  ]
}
